{
  "source": "patent US10711007B2",
  "about": "“Selective inhibitors of protein arginine methyltransferase 5 (PRMT5)” (Prelude Therapeutics, Incorporated, priority 2018, dated 2020)",
  "note": "Counter-ions that a name gives are not always drawn.",
  "data": [
    {"molecular_target": "PRMT5/MEP50 complex (Homo sapiens (Human), UniProt O14744)", "sequence (O14744 whole entry)": "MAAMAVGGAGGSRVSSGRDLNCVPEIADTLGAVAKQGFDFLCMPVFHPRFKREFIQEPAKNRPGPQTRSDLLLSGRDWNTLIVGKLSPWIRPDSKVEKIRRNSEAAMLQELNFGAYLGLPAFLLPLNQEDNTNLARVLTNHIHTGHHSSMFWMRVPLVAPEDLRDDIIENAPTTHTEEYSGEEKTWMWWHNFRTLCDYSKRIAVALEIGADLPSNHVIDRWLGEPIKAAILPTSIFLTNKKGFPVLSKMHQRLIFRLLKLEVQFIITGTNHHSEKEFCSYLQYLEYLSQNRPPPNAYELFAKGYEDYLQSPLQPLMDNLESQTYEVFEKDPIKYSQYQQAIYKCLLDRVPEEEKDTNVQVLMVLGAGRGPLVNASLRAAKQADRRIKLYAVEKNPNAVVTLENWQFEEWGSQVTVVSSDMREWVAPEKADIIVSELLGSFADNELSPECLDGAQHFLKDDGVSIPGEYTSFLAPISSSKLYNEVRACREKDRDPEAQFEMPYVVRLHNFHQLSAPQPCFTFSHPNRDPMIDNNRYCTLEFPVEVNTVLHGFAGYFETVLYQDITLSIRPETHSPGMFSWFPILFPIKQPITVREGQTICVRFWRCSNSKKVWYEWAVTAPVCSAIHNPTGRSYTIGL", "sequence (Q9BQA1 whole entry partner)": "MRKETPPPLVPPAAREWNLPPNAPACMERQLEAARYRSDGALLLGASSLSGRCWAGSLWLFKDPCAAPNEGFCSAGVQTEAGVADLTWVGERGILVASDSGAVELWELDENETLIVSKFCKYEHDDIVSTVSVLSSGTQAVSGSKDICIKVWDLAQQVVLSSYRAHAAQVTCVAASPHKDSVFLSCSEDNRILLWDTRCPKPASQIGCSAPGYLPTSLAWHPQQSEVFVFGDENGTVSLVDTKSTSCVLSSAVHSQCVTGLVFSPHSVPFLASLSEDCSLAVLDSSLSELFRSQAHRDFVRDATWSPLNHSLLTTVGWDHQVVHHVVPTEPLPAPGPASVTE", "assay": "Biochemical assay: PRMT5/MEP50 methylation of histone H4 based AcH4-23, SPA readout", "conditions": "PRMT5/MEP50 2.5 nM, 300 nM AcH4-23, 1 μM 3H-SAM", "protocol": "Biochemical Assay Protocol\nCompounds were solubilized and 3-fold diluted in 100% DMSO. […] Standard reactions were performed in a total volume of 30 μl in assay buffer, with 300 nM histone H4 based AcH4-23 (Anaspec: AS-65002) as substrate. To this was added the PRMT5/MEP50 complex diluted to provide a final assay concentration of 2.5 nM and the compounds were allowed to preincubate for 20 minutes at 37° C. The reaction was initiated by adding S-[3H-methyl]-adenosyl-L-methionine (PerkinElmer: NET155001MC) to final concentration of 1 μM. Following a 30 minutes incubation at 37° C., the reaction was stopped by adding 25 μL of 8M Guanidine HCl. Prepare streptavidin YSI SPA beads (Perkinelmer: RPNQ0012) at 0.3 mg/mL in assay buffer. To each reaction, add 150 μL of SPA beads suspension, and incubated while shaking at room temperature for 30 minutes. The plate was centrifuged at 100×g for 30 second before reading in a scintillation counter. IC50 values were determined by fitting the data to the standard 4 parameters with Hill Slope using GraphPad Prism software.", "units": {"IC50": "nM"}, "values": [
      {"smiles": "Nc1ncnc2c1ccn2[C@@H]1O[C@H]([C@H]2OCc3cc(Cl)ccc32)[C@@H](O)[C@H]1O", "note": "[Example 1B, (2R,3R,4S,5S)-2-(4-amino-7H-pyrrolo[2,3-d]pyrimidin-7-yl)-5-((S)-5-chloro-1,3-dihydroisobenzofuran-1-yl)tetrahydrofuran-3,4-diol]", "IC50": 270},
      {"smiles": "Nc1ncnc2c1ccn2[C@@H]1C[C@H]([C@H]2OCc3cc(Cl)ccc32)[C@@H](O)[C@H]1O", "note": "[Example 2A, (1R,2S,3R,5S)-3-(4-amino-7H-pyrrolo[2,3-d]pyrimidin-7-yl)-5-((R)-5-chloro-1,3-dihydroisobenzofuran-1-yl)cyclopentane-1,2-diol]", "IC50": 680},
      {"smiles": "Nc1ncnc2c1ccn2[C@@H]1C[C@H]([C@H]2OC(=O)c3cc(Cl)ccc32)[C@@H](O)[C@H]1O", "note": "[Example 3B, (R)-3-((1S,2R,3S,4R)-4-(4-amino-6H-7I4-pyrrolo[2,3-d]pyrimidin-7-yl)-2,3-dihydroxycyclopentyl)-6-chloroisobenzofuran-1(3H)-one, hydrochloride]", "IC50": 1020},
      {"smiles": "Cc1ncnc2c1ccn2[C@@H]1O[C@H]([C@@H]2OCc3ccc(Cl)cc32)[C@@H](O)[C@H]1O", "note": "[Example 15, (2S,3S,4R,5R)-2-((R)-6-chloro-1,3-dihydroisobenzofuran-1-yl)-5-(4-methyl-7H-pyrrolo[2,3-d]pyrimidin-7-yl)tetrahydrofuran-3,4-diol]", "IC50": 1},
      {"smiles": "COC1Cc2cc(Cl)ccc2[C@H]([C@H]2O[C@@H](n3ccc4c(N)ncnc43)[C@H](O)[C@@H]2O)O1", "note": "(stereo partly drawn) [Example 42, (2R,3R,4S,5S)-2-(4-amino-7H-pyrrolo[2,3-d]pyrimidin-7-yl)-5-((1R)-6-chloro-3-methoxyisochroman-1-yl)tetrahydrofuran-3,4-diol]", "IC50": 428},
      {"smiles": "Nc1ncnc2c1ccn2[C@@H]1O[C@H]([C@@H]2OC(O)Cc3cc(Cl)ccc32)[C@@H](O)[C@H]1O", "note": "(stereo partly drawn) [Example 43, (2R,3R,4S,5S)-2-(4-amino-7H-pyrrolo[2,3-d]pyrimidin-7-yl)-5-((1R)-6-chloro-3-hydroxyisochroman-1-yl)tetrahydrofuran-3,4-diol]", "IC50": 19},
      {"smiles": "COC1Cc2cc(Cl)ccc2[C@H]([C@H]2O[C@@H](n3ccc4c(C)ncnc43)[C@H](O)[C@@H]2O)O1", "note": "(stereo partly drawn) [Example 44, (2S,3S,4R,5R)-2-((1R)-6-chloro-3-methoxyisochroman-1-yl)-5-(4-methyl-7H-pyrrolo[2,3-d]pyrimidin-7-yl)tetrahydrofuran-3,4-diol]", "IC50": 606},
      {"smiles": "Cc1ncnc2c1ccn2[C@@H]1O[C@H]([C@@H]2OC(O)Cc3cc(Cl)ccc32)[C@@H](O)[C@H]1O", "note": "(stereo partly drawn) [Example 50, (2S,3S,4R,5R)-2-((1R)-6-chloro-3-hydroxyisochroman-1-yl)-5-(4-methyl-7H-pyrrolo[2,3-d]pyrimidin-7-yl)tetrahydrofuran-3,4-diol]", "IC50": 59},
      {"smiles": "Cc1ncnc2c1ccn2[C@@H]1O[C@H]([C@@H]2OCC(F)(F)c3ccccc32)[C@@H](O)[C@H]1O", "note": "[Example 76, (2S,3S,4R,5R)-2-((R)-4,4-difluoroisochroman-1-yl)-5-(4-methyl-7H-pyrrolo[2,3-d]pyrimidin-7-yl)tetrahydrofuran-3,4-diol]", "IC50": 81},
      {"smiles": "Nc1ncnc2c1ccn2[C@@H]1O[C@H]([C@@H]2OCCc3c2ccc(F)c3F)[C@@H](O)[C@H]1O", "note": "[Example 77, (2R,3R,4S,5S)-2-(4-amino-7H-pyrrolo[2,3-d]pyrimidin-7-yl)-5-((R)-5,6-difluoroisochroman-1-yl)tetrahydrofuran-3,4-diol]", "IC50": 2.82},
      {"smiles": "Nc1ncnc2c1ccn2[C@@H]1O[C@H]([C@@H]2OCC(F)(F)c3ccccc32)[C@@H](O)[C@H]1O", "note": "[Example 78, (2R,3R,4S,5S)-2-(4-amino-7H-pyrrolo[2,3-d]pyrimidin-7-yl)-5-((R)-4,4-difluoroisochroman-1-yl)tetrahydrofuran-3,4-diol]", "IC50": 6.7},
      {"smiles": "Cc1ncnc2c1ccn2[C@@H]1O[C@H]([C@@H]2OCCc3c2ccc(F)c3F)[C@@H](O)[C@H]1O", "note": "[Example 79, (2S,3S,4R,5R)-2-((R)-5,6-difluoroisochroman-1-yl)-5-(4-methyl-7H-pyrrolo[2,3-d]pyrimidin-7-yl)tetrahydrofuran-3,4-diol]", "IC50": 8.4},
      {"smiles": "Cc1ncnc2c1ccn2[C@@H]1O[C@H]([C@H]2OCCc3cc(Cl)ccc32)[C@@H](O)[C@H]1O", "note": "[Example 80, (2S,3S,4R,5R)-2-((S)-6-chloroisochroman-1-yl)-5-(4-methyl-7H-pyrrolo[2,3-d]pyrimidin-7-yl)tetrahydrofuran-3,4-diol]", "IC50": 1010},
      {"smiles": "Nc1ncnc2c1ccn2[C@@H]1O[C@H]([C@@H]2OCOCc3cc(Cl)ccc32)[C@@H](O)[C@H]1O", "note": "[Example 81, (2R,3R,4S,5S)-2-(4-amino-7H-pyrrolo[2,3-d]pyrimidin-7-yl)-5-((R)-7-chloro-1,5-dihydrobenzo[e][1,3]dioxepin-1-yl)tetrahydrofuran-3,4-diol]", "IC50": 41.5},
      {"smiles": "Nc1ncnc2c1ccn2[C@@H]1O[C@H]([C@@H]2OC(=O)Cc3cc(Cl)ccc32)[C@@H](O)[C@H]1O", "note": "[Example 82, (R)-1-((2S,3S,4R,5R)-5-(4-amino-7H-pyrrolo[2,3-d]pyrimidin-7-yl)-3,4-dihydroxytetrahydrofuran-2-yl)-6-chloroisochroman-3-one]", "IC50": 585},
      {"smiles": "Nc1ncnc2c1ccn2[C@@H]1O[C@H]([C@H]2OCCc3cc(Cl)sc32)[C@@H](O)[C@H]1O", "note": "[Example 91, (2R,3R,4S,5S)-2-(4-amino-7H-pyrrolo[2,3-d]pyrimidin-7-yl)-5-((R)-2-chloro-4,7-dihydro-5H-thieno[2,3-c]pyran-7-yl)tetrahydrofuran-3,4-diol]", "IC50": 554},
      {"smiles": "Cc1ncnc2c1ccn2[C@@H]1O[C@H]([C@@H]2OC[C@@H](F)c3cc(Cl)ccc32)[C@@H](O)[C@H]1O", "note": "[Example 92, (2S,3S,4R,5R)-2-((1R,4S)-6-chloro-4-fluoroisochroman-1-yl)-5-(4-methyl-7H-pyrrolo[2,3-d]pyrimidin-7-yl)tetrahydrofuran-3,4-diol]", "IC50": 20},
      {"smiles": "Nc1ncnc2c1ccn2[C@@H]1O[C@H]([C@@H]2OC[C@@H](F)c3cc(Cl)ccc32)[C@@H](O)[C@H]1O", "note": "[Example 93, (2R,3R,4S,5S)-2-(4-aminopyrrolo[2,3-d]pyrimidin-7-yl)-5-[(1R,4S)-6-chloro-4-fluoro-isochroman-1-yl]tetrahydrofuran-3,4-diol]", "IC50": 14},
      {"smiles": "Cc1ncnc2c1ccn2[C@@H]1O[C@H]([C@@H]2OC[C@H](F)c3cc(Cl)ccc32)[C@@H](O)[C@H]1O", "note": "[Example 94, (2R,3R,4S,5S)-2-(4-methylpyrrolo[2,3-d]pyrimidin-7-yl)-5-[(1R,4R)-6-chloro-4-fluoro-isochroman-1-yl]tetrahydrofuran-3,4-diol]", "IC50": 3.2},
      {"smiles": "Cc1cc2c(cc1Cl)CCO[C@H]2[C@H]1O[C@@H](n2ccc3c(C)ncnc32)[C@H](O)[C@@H]1O", "note": "[Example 99, (2S,3S,4R,5R)-2-((R)-6-chloro-7-methylisochroman-1-yl)-5-(4-methyl-7H-pyrrolo[2,3-d]pyrimidin-7-yl)tetrahydrofuran-3,4-diol]", "IC50": 39.6},
      {"smiles": "Cc1cc2c(cc1Cl)CCO[C@H]2[C@H]1O[C@@H](n2ccc3c(N)ncnc32)[C@H](O)[C@@H]1O", "note": "[Example 100, (2R,3R,4S,5S)-2-(4-amino-7H-pyrrolo[2,3-d]pyrimidin-7-yl)-5-((R)-6-chloro-7-methylisochroman-1-yl)tetrahydrofuran-3,4-diol]", "IC50": 5.6},
      {"smiles": "Cc1ncnc2c1ccn2[C@@H]1O[C@H]([C@@H]2OCCCc3cc(Cl)ccc32)[C@@H](O)[C@H]1O", "note": "[Example 101, (2S,3S,4R,5R)-2-((R)-7-chloro-1,3,4,5-tetrahydrobenzo[c]oxepin-1-yl)-5-(4-methyl-7H-pyrrolo[2,3-d]pyrimidin-7-yl)tetrahydrofuran-3,4-diol]", "IC50": 1580},
      {"smiles": "Nc1ncnc2c1ccn2[C@@H]1O[C@H]([C@@H]2OCCCc3cc(Cl)ccc32)[C@@H](O)[C@H]1O", "note": "[Example 102, (2R,3R,4S,5S)-2-(4-amino-6H-7I4-pyrrolo[2,3-d]pyrimidin-7-yl)-5-((R)-7-chloro-1,3,4,5-tetrahydrobenzo[c]oxepin-1-yl)tetrahydrofuran-3,4-diol, hydrochloride]", "IC50": 6280}
    ]}
  ]
}
